Measured values: PubChem BioAssay AID2060493 (Molecular Pharmacology Branch, DTP, NCI, 2025)

System: 616215-338-R-J1-PDC tumor spheroids, viability
Assay: Anticancer human tumor 616215-338-R-J1-PDC patient-derived colon adenocarcinoma cell line growth inhibition [GQUAD]
Details: spheroids with HUVEC and MSC; for IC50: curve of first compound; for viability, T/C: stronger effect = lower value; active = viability on the fitted dose curve at most 10% of control; inactive = the rest
Summary of the method: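 Viability of tumor cells grown as complex spheroids with endothelial and stromal cells, exposed to drug combinations. Top concentration at or near clinical Cmax (else 10 microM), diluted in half-log increments.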

[1] = second compound 0.0316 µM, first compound 0.0316 µM
[2] = second compound 0.0316 µM, first compound 0.316 µM
[3] = second compound 0.1 µM, first compound 0.0316 µM
[4] = second compound 0.1 µM, first compound 0.316 µM
[5] = second compound 0.316 µM, first compound 0.0316 µM
[6] = second compound 0.316 µM, first compound 0.316 µM
[7] = second compound 1 µM, first compound 0.0316 µM
[8] = second compound 1 µM, first compound 0.316 µM
[9] = second compound 3.16 µM, first compound 0.0316 µM
[10] = second compound 3.16 µM, first compound 0.316 µM
[11] = second compound 10 µM, first compound 0.0316 µM
[12] = second compound 10 µM, first compound 0.316 µM
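Note: spheroids exposed to agents for 7 days before readout.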
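Throughout, for viability, T/C: percent viability relative to DMSO vehicle control wells taken as 100%.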

C=CCn1c(=O)c2cnc(Nc3ccc(N4CCN(C)CC4)cc3)nc2n1-c1cccc(C(C)(C)O)n1 + CN(C)c1ccc(Nc2c3ccc(NC(=O)CCN4CCCC4)cc3nc3cc(NC(=O)CCN4CCCC4)ccc23)cc1
335 nM: IC50 (second compound 10 µM)
inactive: viability, T/C [1] 108% | viability, T/C (second compound 0.0316 µM, first compound 0.1 µM) 100% | viability, T/C [2] 50.6% | viability, T/C (second compound 0.0316 µM, first compound 1 µM) 23% | viability, T/C (second compound 0.0316 µM, first compound 3.16 µM) 12.6% | viability, T/C (second compound 0.0316 µM, first compound 10 µM) 11.5% | viability, T/C [3] 107% | viability, T/C (second compound 0.1 µM, first compound 0.1 µM) 109% | viability, T/C [4] 46.9% | viability, T/C (second compound 0.1 µM, first compound 1 µM) 23.5% | viability, T/C (second compound 0.1 µM, first compound 3.16 µM) 13.4% | viability, T/C (second compound 0.1 µM, first compound 10 µM) 12% | viability, T/C [5] 105% | viability, T/C (second compound 0.316 µM, first compound 0.1 µM) 107% | viability, T/C [6] 52.2% | viability, T/C (second compound 0.316 µM, first compound 1 µM) 23.3% | viability, T/C (second compound 0.316 µM, first compound 3.16 µM) 13.1% | viability, T/C (second compound 0.316 µM, first compound 10 µM) 14.7% | viability, T/C [7] 98.2% | viability, T/C (second compound 1 µM, first compound 0.1 µM) 99.5% | viability, T/C [8] 44.1% | viability, T/C (second compound 1 µM, first compound 1 µM) 24.4% | viability, T/C (second compound 1 µM, first compound 3.16 µM) 13.7% | viability, T/C (second compound 1 µM, first compound 10 µM) 14.3% | viability, T/C [9] 100% | viability, T/C (second compound 3.16 µM, first compound 0.1 µM) 96.9% | viability, T/C [10] 46.4% | viability, T/C (second compound 3.16 µM, first compound 1 µM) 26% | viability, T/C (second compound 3.16 µM, first compound 3.16 µM) 14.5% | viability, T/C (second compound 3.16 µM, first compound 10 µM) 10.6% | viability, T/C [11] 87.9% | viability, T/C (second compound 10 µM, first compound 0.1 µM) 90.3% | viability, T/C [12] 49% | viability, T/C (second compound 10 µM, first compound 1 µM) 19.9%
344 nM: IC50 (second compound 0.0316 µM)
active: viability, T/C (second compound 10 µM, first compound 3.16 µM) 11.9% | viability, T/C (second compound 10 µM, first compound 10 µM) 3.42%
281 nM: IC50 (second compound 1 µM)
308 nM: IC50 (second compound 3.16 µM)
347 nM: IC50 (second compound 0.316 µM)
300 nM: IC50 (second compound 0.1 µM)

CC[C@@]1(O)C(=O)OCc2c1cc1n(c2=O)Cc2cc3c(CN(C)C)c(O)ccc3nc2-1 + CN(C)c1ccc(Nc2c3ccc(NC(=O)CCN4CCCC4)cc3nc3cc(NC(=O)CCN4CCCC4)ccc23)cc1
183 nM: IC50 (second compound 10 µM)
282 nM: IC50 (second compound 0.0316 µM)
inactive: viability, T/C (second compound 0.0316 µM, first compound 0.000999 µM) 97.5% | viability, T/C (second compound 0.0316 µM, first compound 0.00316 µM) 98.9% | viability, T/C (second compound 0.0316 µM, first compound 0.00999 µM) 98% | viability, T/C [1] 105% | viability, T/C (second compound 0.0316 µM, first compound 0.0999 µM) 87.9% | viability, T/C [2] 45.9% | viability, T/C (second compound 0.1 µM, first compound 0.000999 µM) 93.5% | viability, T/C (second compound 0.1 µM, first compound 0.00316 µM) 101% | viability, T/C (second compound 0.1 µM, first compound 0.00999 µM) 101% | viability, T/C [3] 101% | viability, T/C (second compound 0.1 µM, first compound 0.0999 µM) 87.2% | viability, T/C [4] 40.5% | viability, T/C (second compound 0.316 µM, first compound 0.000999 µM) 113% | viability, T/C (second compound 0.316 µM, first compound 0.00316 µM) 94.5% | viability, T/C (second compound 0.316 µM, first compound 0.00999 µM) 98.5% | viability, T/C [5] 105% | viability, T/C (second compound 0.316 µM, first compound 0.0999 µM) 85.2% | viability, T/C [6] 36.4% | viability, T/C (second compound 1 µM, first compound 0.000999 µM) 105% | viability, T/C (second compound 1 µM, first compound 0.00316 µM) 100% | viability, T/C (second compound 1 µM, first compound 0.00999 µM) 96.2% | viability, T/C [7] 101% | viability, T/C (second compound 1 µM, first compound 0.0999 µM) 87.4% | viability, T/C [8] 44.1% | viability, T/C (second compound 3.16 µM, first compound 0.000999 µM) 97.9% | viability, T/C (second compound 3.16 µM, first compound 0.00316 µM) 86.8% | viability, T/C (second compound 3.16 µM, first compound 0.00999 µM) 96.7% | viability, T/C [9] 95.2% | viability, T/C (second compound 3.16 µM, first compound 0.0999 µM) 93.1% | viability, T/C [10] 41.8% | viability, T/C (second compound 10 µM, first compound 0.000999 µM) 90.2% | viability, T/C (second compound 10 µM, first compound 0.00316 µM) 91% | viability, T/C (second compound 10 µM, first compound 0.00999 µM) 95.8% | viability, T/C [11] 85.3% | viability, T/C (second compound 10 µM, first compound 0.0999 µM) 74.5% | viability, T/C [12] 28.1%
230 nM: IC50 (second compound 0.316 µM)
263 nM: IC50 (second compound 3.16 µM)
272 nM: IC50 (second compound 1 µM)
251 nM: IC50 (second compound 0.1 µM)
